Test results reported in patent US20260109731A1, “NE[…] USE THEREOF” (HUNAN MINGRUI PHARMACEUTICAL CO., LTD., priority 2023, published 2026).
Like-named read-outs stand apart in the source and are kept apart here.

How the values were obtained:
[1] = Pharmacokinetic analysis of oral gavage administration in female rats; conditions: 12 mg/kg
Protocol: • Female SD rats (body weight: 200 g to 220 g) were purchased from BEIJING HFK BIOSCIENCE CO., LTD.
60 female SD rats were divided into two groups (Aoral and Boral), with 30 rats per group (5 rats per blood collection time point). The drugs Aoral and Boral were administered via oral gavage administration at 12 mg/kg each (about 1.6 mL of drug solution). Blood was collected from the orbital venous plexus at each time point (5 min, 30 min, 1 h, 2 h, 4 h, and 8 h) after administration, respectively, anticoagulated with heparin, and centrifuged, and then the plasma was separated and stored at −80° C. for later testing. At 8 h after blood collection, the animals were sacrificed, and the brain and Liver tissues were taken and stored at −80° C. for later testing.
100 μL of plasma sample, 10 μL of internal standard solution (100 ng/mL testosterone D-3 solution), and 310 μL of acetonitrile were accurately measured, uniformly mixed by vortexing, and centrifuged (14000 rpm, 4° C.), and a resulting supernatant was taken and detected using UPLC-MS/MS (the analysis method was the same as that in pharmacokinetic analysis in mice).
About 100 mg of brain or liver tissue sample was taken, and accurately weighed. 100 μL of water and 400 μL acetonitrile were accurately added thereto, and a resulting mixture was subjected to homogenization. 100 μL of brain or liver tissue homogenate, 10 μL of internal standard solution (100 ng/mL testosterone D-3 solution), and 310 μL of acetonitrile were accurately measured, uniformly mixed by vortexing, and centrifuged (14000 rpm, 4° C.), and a resulting supernatant was taken and detected using UPLC-MS/MS (the analysis method was the same as that in pharmacokinetic analysis in mice).

[2] = Pharmacokinetic analysis of oral administration to male rats; assay type: in vivo; conditions: oral gavage 12 mg/kg; for Blood drug concentration: individual rats 1-7; for concentration at 0.5 h / concentration at 1 h / concentration at 2 h / concentration at 3 h / concentration at 4 h / concentration at 5 h / concentration at 6 h / concentration at 8 h / concentration at 10 h / concentration at 12 h / concentration at 18 h / concentration at 24 h: male, SD, rat, plasma, po, 12 mg/kg
Source text: Male SD rats (body weight: 230 g to 250 g) were purchased from BEIJING HFK BIOSCIENCE CO., LTD.

[3] = In vitro phase I metabolic stability in male SD rat hepatic microsomes; assay type: in vitro ADME; conditions: male SD rat hepatic microsomes
Protocol: Phase I metabolic stability kit (purchased from HUIZHI HEYUAN BIOTECHNOLOGY (BEIJING) CO., LTD), with the following components of the product:
Positive substrate testosterone solution (10 mM): diluted with acetonitrile to prepare a 200 μM solution for later use; stop solution & internal standard (testosterone-D3): dissolved with acetonitrile to prepare a 5 ng/mL solution for later use.
• 1) all components of the kit were thawed in an ice bath and placed on ice for later use; • 2) an incubation system (taking 200 μL system as an example) was prepared:
• 3) 160 μL of pre-incubation solution B was added into the centrifuge tube containing 40 μL of pre-incubation solution A, uniform mixing was performed by pipetting three times, and the resulting mixture was immediately placed in a water bath at 37° C. for incubation and timing was started; • 4) at predetermined incubation time points (0, 5, 10, 15, 30, 45, 60 minutes), the incubation solution was quantitatively taken out, and 200 μL of stop solution (5 ng/mL testosterone-D3 in acetonitrile, pre-chilled at 4° C.) was added to terminate the reaction (stop solution volume: incubation system volume=1:1). Experimental samples were prepared in triplicate at each time point.
To verify the validity of the experiment, a positive control group was established concurrently in the whole experiment to evaluate whether the incubation system functioned properly, with the preparation method as follows: the compound to be tested was replaced with the positive substrate testosterone (200 μM in acetonitrile) from the phase I metabolic stability kit, and the other components of the incubation system and experimental method were the same as those of the experimental group.
The ratio of the chromatographic peak area of the compound to be tested to the chromatographic peak area of the testosterone-D3 (internal standard) was used as the calculated data. By taking the peak area ratio at time zero of the test compound as 100%, the remaining percentages were calculated by comparing the peak area ratio at each time point with the peak area ratio at time zero, and the natural logarithms of the remaining percentages of the substrate at each time point are then subjected to linear regression against the incubation times to obtain the slope k. Therefore, the in vitro metabolic half-life (T1/2) and intrinsic clearance (CLint) were calculated using the following formulas: […]

## CC(=O)[C@H]1CC[C@H]2[C@@H]3CC[C@H]4C[C@H](O)CC[C@]4(C)[C@H]3CC[C@]12C [Allopregnanolone, 5α-pregnan-3α-ol-20-one, reference compound]
[1]; female SD rats, oral administration, 8 h after administration
  level of the administered compound in the liver tissue (for compound 1 the sentence prints: in the plasma): undetectable
[1]; female SD rats, oral gavage
  level in plasma and brain tissue at all time points: undetectable
[1]; female, SD, rat, plasma, oral
  bioavailability: 0%
[2]; male SD rats, 0.5 h
  Blood drug concentration: 0 ng/mL
[2]; male SD rats, 30 min to 24 h
  level in the plasma at all time points: undetectable
[2]; male SD rats, 1 h
  Blood drug concentration: 0 ng/mL
[2]; male SD rats, 2 h
  Blood drug concentration: 0 ng/mL
[2]; male SD rats, 3 h
  Blood drug concentration: 0 ng/mL
[2]; male SD rats, 4 h
  Blood drug concentration: 0 ng/mL
[2]; male SD rats, 5 h
  Blood drug concentration: 0 ng/mL
[2]; male SD rats, 6 h
  Blood drug concentration: 0 ng/mL
[2]; male SD rats, 8 h
  Blood drug concentration: 0 ng/mL
[2]; male SD rats, 10 h
  Blood drug concentration: 0 ng/mL
[2]; male SD rats, 12 h
  Blood drug concentration: 0 ng/mL
[2]; male SD rats, 18 h
  Blood drug concentration: 0 ng/mL
[2]; male SD rats, 24 h
  Blood drug concentration: 0 ng/mL
[2]; 0.5 h, individual rats 1-7, read-out: Blood drug concentration
  concentration at 0.5 h: 0 ng/mL
[2]; 0.5 h, mean of 7 rats, read-out: Blood drug concentration, Mean value
  concentration at 0.5 h: 0 ng/mL
[2]; 1 h, individual rats 1-7, read-out: Blood drug concentration
  concentration at 1 h: 0 ng/mL
[2]; 1 h, mean of 7 rats, read-out: Blood drug concentration, Mean value
  concentration at 1 h: 0 ng/mL
[2]; 2 h, individual rats 1-7, read-out: Blood drug concentration
  concentration at 2 h: 0 ng/mL
[2]; 2 h, mean of 7 rats, read-out: Blood drug concentration, Mean value
  concentration at 2 h: 0 ng/mL
[2]; 3 h, individual rats 1-7, read-out: Blood drug concentration
  concentration at 3 h: 0 ng/mL
[2]; 3 h, mean of 7 rats, read-out: Blood drug concentration, Mean value
  concentration at 3 h: 0 ng/mL
[2]; 4 h, individual rats 1-7, read-out: Blood drug concentration
  concentration at 4 h: 0 ng/mL
[2]; 4 h, mean of 7 rats, read-out: Blood drug concentration, Mean value
  concentration at 4 h: 0 ng/mL
[2]; 5 h, individual rats 1-7, read-out: Blood drug concentration
  concentration at 5 h: 0 ng/mL
[2]; 5 h, mean of 7 rats, read-out: Blood drug concentration, Mean value
  concentration at 5 h: 0 ng/mL
[2]; 6 h, individual rats 1-7, read-out: Blood drug concentration
  concentration at 6 h: 0 ng/mL
[2]; 6 h, mean of 7 rats, read-out: Blood drug concentration, Mean value
  concentration at 6 h: 0 ng/mL
[2]; 8 h, individual rats 1-7, read-out: Blood drug concentration
  concentration at 8 h: 0 ng/mL
[2]; 8 h, mean of 7 rats, read-out: Blood drug concentration, Mean value
  concentration at 8 h: 0 ng/mL
[2]; 10 h, individual rats 1-7, read-out: Blood drug concentration
  concentration at 10 h: 0 ng/mL
[2]; 10 h, mean of 7 rats, read-out: Blood drug concentration, Mean value
  concentration at 10 h: 0 ng/mL
[2]; 12 h, individual rats 1-7, read-out: Blood drug concentration
  concentration at 12 h: 0 ng/mL
[2]; 12 h, mean of 7 rats, read-out: Blood drug concentration, Mean value
  concentration at 12 h: 0 ng/mL
[2]; 18 h, individual rats 1-7, read-out: Blood drug concentration
  concentration at 18 h: 0 ng/mL
[2]; 18 h, mean of 7 rats, read-out: Blood drug concentration, Mean value
  concentration at 18 h: 0 ng/mL
[2]; 24 h, individual rats 1-7, read-out: Blood drug concentration
  concentration at 24 h: 0 ng/mL
[2]; 24 h, mean of 7 rats, read-out: Blood drug concentration, Mean value
  concentration at 24 h: 0 ng/mL
[3]; liver microsomes, NADPH system, 37° C., read-out: T1/2 (in vitro metabolic half-life)
  half-life: 2.17 min
[3]; liver microsomes, read-out: intrinsic clearance
  microsomal CLint: 639 µL/min/mg
[3]; 37° C.
  In vitro CLint: 639.28 μL/min/mg protein
  k (slope of ln remaining percentage against incubation time): −0.3196
